# From paper PMC9486168, “Protein-protein interaction-based high throughput screening for adenylyl cyclase 1 inhibitors: Design, implementation, and discovery of a novel chemotype” (Frontiers in Pharmacology, 2022)
# Several values for one entry are separate records, joined by “and”; a condition that tells them apart may be missing. Equal entries are not always repeated. Structures can show the parent of a compound that is named as a salt. Where two headings read alike, the source gives them in different places.
# Columns and labels:
# AC1-C1b/CaM = target: T1, AC1-C1b/CaM (Homo sapiens, UniProt P0DP23); test: AC1-C1b/CaM fluorescence polarization (FP) assay; type: binding; settings: for IC50: 100 nM AC1-C1b, 100 nM GST-CaM, 95% CI in brackets; for Ki: Cheng-Prusoff from FP IC50 and Kd; for AC1-CaM FP % inhib: relative to 100 μM CDZ (100% inhibition), highest concentration tested; for inhibition of AC1/CaM in the FP assay after fresh powder stocks were ordered: repurchased powder
# T1 construct: made in house; host or cells: E. coli BL21-CodonPlus (DE3)-RIPL
# AC8-Nt/CaM = target: T2, AC8-Nt/CaM (Homo sapiens, UniProt P0DP23); test: AC8-Nt/CaM FP counterscreen assay; type: binding; settings: for Ki / Ki (μM) AC8 NT: Cheng-Prusoff from FP IC50 and Kd, n/i given where none; for Ki ratio (AC8 NT/AC1): ratio >1: more potent in AC1/CaM FP;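 for all read-outs here: fluorescence polarization of AC peptide binding GST-CaM in HEPES buffer with CaCl2, compound preincubated with CaM 30 min, peptide read after 2 h at room temperature in dark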
# T2 construct: made in house; host or cells: E. coli BL21-CodonPlus (DE3)-RIPL
# AC8-C2b/CaM = target: T3, AC8-C2b/CaM (Homo sapiens, UniProt P0DP23); test: AC8-C2b/CaM FP counterscreen assay; type: binding; settings: for Ki / Ki (μM) AC8 C2b: Cheng-Prusoff from FP IC50 and Kd, n/i given where none; for Ki ratio (AC8-C2b/AC1): ratio >1: more potent in AC1/CaM FP;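 for all read-outs here: fluorescence polarization of AC peptide binding to GST-CaM in HEPES buffer with KCl and 50 µM CaCl2, compound preincubated 30 min with GST-CaM, DMSO and calmidazolium as controls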
# T3 construct: made in house; host or cells: E. coli BL21-CodonPlus (DE3)-RIPL
# AC1/CaM PPI = target: T4, AC1/CaM PPI (Homo sapiens, UniProt P0DP23); test: AC1/CaM NanoBiT assay in HEK293T cells; type: cell-based; settings: HEK293T, thapsigargin-stimulated, AUC; for IC50: read-out: Nanobit: AC1-CaM IC50 (μM ± SEM)
# T4 construct: human AC1 (hAC1) residues 1–1,118 were cloned; The hCaM residues 1–149, residues 1–1,248 of rat AC8 (rAC8); expressed in transfected cells; host or cells: HEK293T, transient transfection
# AC8/CaM PPI = target: T5, AC8/CaM PPI (Homo sapiens, UniProt P0DP23); test: AC8/CaM NanoBiT assay in HEK293T cells; type: cell-based, rat; settings: for IC50: HEK293T, thapsigargin-stimulated, AUC, read-out: Nanobit: AC8-CaM IC50 (μM ± SEM)
# T5 construct: confirmed as an AC1/AC8 non-selective hit against full-length AC1- and AC8-CaM in the NanoBiT assay; The hCaM residues 1–149, residues 1–1,248 of rat AC8 (rAC8); expressed in transfected cells; host or cells: HEK293T, transient transfection
# [1] = CellTiter-Glo 2.0 cell viability assay; type: cell-based; settings: human, HEK293T cells, pH 7.4; at the compound's AC1/CaM NanoBiT IC50 concentration; read-out: % Viable Cells at AC1 IC50;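 note: luminescence read-out after 30 min compound exposure at 37 °C in HEPES-buffered HBSS, scaled to vehicle-treated cells as 100% and cell-free buffer wells as 0%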
# AC1 = target: T6, AC1 (Homo sapiens, UniProt Q08828); test: cAMP accumulation assay, AC1-HEK Δ3/6 KO cells; type: cell-based
# T6 construct: expressed in transfected cells
# Description: Cells were then incubated for 1 h at 37°C and 5% CO2. Cells were then treated with varying concentrations of inhibitors for 30 min, followed by treatment with calcium ionophore A23187 (3 μM) in 500 μM 3-isobutyl-1-methylxanthine (IBMX), a phosphodiesterase inhibitor, for 1 h at RT (Sigma Aldrich, St. Louis, MO). Finally, Cisbio HTRF detection reagents were added and incubated for 1–24 h at RT. Plates were read according to manufacturer’s protocol on an HTRF-compatible plate reader at 620 and 665 nm cAMP concentrations were interpolated from a cAMP standard curve. […] For cytotoxicity assays, compounds were tested at 30 μM and this protocol was used with the exception of detection reagents; CellTiter-Glo 2.0 reagent was used according to manufacturer’s protocol and luminescence was read on the Synergy Neo2 plate reader. Data are normalized to cells treated with vehicle (100%) or 2% tween (0%) and are represented as the percent of vehicle, from the average of three independent experiments (N = 3).
# AC8 = target: T7, AC8 (Homo sapiens, UniProt P40145); test: cAMP accumulation assay, AC8-HEK Δ3/6 KO cells; type: cell-based; settings: CDI analog SAR set, 3 μM A23187; read-out: IC50 (μM) ± SEM AC8
# T7 construct: expressed in transfected cells
# Description: (§1) Cryopreserved HEK293 cells with AC3 and AC6 knocked out, and stably expressing AC1, AC2, AC5, or AC8 (AC1-HEK Δ3/6 KO, AC2-HEK Δ3/6 KO, AC5-HEK Δ3/6 KO, or AC8-HEK Δ3/6 KO cells, respectively; [Soto-Velasquez et al., 2018]) were plated at 5,000 cells/well. Cells were then incubated for 1 h at 37°C and 5% CO2. Cells were then treated with varying concentrations of inhibitors for 30 min, followed by treatment with calcium ionophore A23187 (3 μM) in 500 μM 3-isobutyl-1-methylxanthine (IBMX), a phosphodiesterase inhibitor, for 1 h at RT (Sigma Aldrich, St. Louis, MO). Finally, Cisbio HTRF detection reagents were added and incubated for 1–24 h at RT. Plates were read according to manufacturer’s protocol on an HTRF-compatible plate reader at 620 and 665 nm cAMP concentrations were interpolated from a cAMP standard curve. […] For cytotoxicity assays, compounds were tested at 30 μM and this protocol was used with the exception of detection reagents; CellTiter-Glo 2.0 reagent was used according to manufacturer’s protocol and luminescence was read on the Synergy Neo2 plate reader. Data are normalized to cells treated with vehicle (100%) or 2% tween (0%) and are represented as the percent of vehicle, from the average of three independent experiments (N = 3).
# [2] = Cytotoxicity assay (CellTiter-Glo 2.0) in AC1-HEK Δ3/6 KO cells; type: cell-based; settings: human, percent of vehicle, read-out: % Viable Cells at AC1 30 μM
# Description: as §1
# [3] = initial examination, 10,000 cells per well, 3 μM A23187, 1 h RT, read-out: AC1 IC50 ± SEM
# [4] = CDI analog SAR set, 3 μM A23187, read-out: IC50 (μM) ± SEM AC1
# T6 sequence (Q08828 whole entry): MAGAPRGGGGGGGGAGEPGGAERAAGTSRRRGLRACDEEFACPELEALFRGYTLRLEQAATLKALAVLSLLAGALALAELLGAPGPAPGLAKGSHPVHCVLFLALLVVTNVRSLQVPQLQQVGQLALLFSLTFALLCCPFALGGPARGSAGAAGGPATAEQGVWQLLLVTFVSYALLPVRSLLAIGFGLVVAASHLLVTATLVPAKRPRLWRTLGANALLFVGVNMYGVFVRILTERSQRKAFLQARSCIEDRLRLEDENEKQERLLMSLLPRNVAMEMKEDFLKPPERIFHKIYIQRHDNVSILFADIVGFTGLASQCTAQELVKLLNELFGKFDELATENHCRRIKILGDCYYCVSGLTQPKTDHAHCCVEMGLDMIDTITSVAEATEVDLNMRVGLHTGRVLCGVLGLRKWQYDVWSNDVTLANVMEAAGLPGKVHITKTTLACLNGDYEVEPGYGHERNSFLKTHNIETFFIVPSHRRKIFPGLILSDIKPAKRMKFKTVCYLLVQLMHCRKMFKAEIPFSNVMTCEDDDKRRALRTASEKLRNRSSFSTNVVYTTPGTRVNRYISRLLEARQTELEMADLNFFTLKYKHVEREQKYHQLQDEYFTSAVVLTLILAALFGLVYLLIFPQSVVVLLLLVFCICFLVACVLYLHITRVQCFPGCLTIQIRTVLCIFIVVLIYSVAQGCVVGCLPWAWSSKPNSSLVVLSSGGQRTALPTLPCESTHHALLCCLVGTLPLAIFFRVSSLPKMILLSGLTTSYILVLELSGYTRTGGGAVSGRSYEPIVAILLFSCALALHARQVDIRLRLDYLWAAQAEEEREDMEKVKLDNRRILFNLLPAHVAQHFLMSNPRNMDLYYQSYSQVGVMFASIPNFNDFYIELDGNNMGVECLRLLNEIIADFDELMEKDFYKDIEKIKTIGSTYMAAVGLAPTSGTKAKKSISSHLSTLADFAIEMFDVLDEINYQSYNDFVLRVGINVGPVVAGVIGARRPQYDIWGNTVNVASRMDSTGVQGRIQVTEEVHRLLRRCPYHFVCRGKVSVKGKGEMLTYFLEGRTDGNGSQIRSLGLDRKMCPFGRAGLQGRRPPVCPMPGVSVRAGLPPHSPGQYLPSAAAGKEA
# T7 sequence (P40145 whole entry, species assumed): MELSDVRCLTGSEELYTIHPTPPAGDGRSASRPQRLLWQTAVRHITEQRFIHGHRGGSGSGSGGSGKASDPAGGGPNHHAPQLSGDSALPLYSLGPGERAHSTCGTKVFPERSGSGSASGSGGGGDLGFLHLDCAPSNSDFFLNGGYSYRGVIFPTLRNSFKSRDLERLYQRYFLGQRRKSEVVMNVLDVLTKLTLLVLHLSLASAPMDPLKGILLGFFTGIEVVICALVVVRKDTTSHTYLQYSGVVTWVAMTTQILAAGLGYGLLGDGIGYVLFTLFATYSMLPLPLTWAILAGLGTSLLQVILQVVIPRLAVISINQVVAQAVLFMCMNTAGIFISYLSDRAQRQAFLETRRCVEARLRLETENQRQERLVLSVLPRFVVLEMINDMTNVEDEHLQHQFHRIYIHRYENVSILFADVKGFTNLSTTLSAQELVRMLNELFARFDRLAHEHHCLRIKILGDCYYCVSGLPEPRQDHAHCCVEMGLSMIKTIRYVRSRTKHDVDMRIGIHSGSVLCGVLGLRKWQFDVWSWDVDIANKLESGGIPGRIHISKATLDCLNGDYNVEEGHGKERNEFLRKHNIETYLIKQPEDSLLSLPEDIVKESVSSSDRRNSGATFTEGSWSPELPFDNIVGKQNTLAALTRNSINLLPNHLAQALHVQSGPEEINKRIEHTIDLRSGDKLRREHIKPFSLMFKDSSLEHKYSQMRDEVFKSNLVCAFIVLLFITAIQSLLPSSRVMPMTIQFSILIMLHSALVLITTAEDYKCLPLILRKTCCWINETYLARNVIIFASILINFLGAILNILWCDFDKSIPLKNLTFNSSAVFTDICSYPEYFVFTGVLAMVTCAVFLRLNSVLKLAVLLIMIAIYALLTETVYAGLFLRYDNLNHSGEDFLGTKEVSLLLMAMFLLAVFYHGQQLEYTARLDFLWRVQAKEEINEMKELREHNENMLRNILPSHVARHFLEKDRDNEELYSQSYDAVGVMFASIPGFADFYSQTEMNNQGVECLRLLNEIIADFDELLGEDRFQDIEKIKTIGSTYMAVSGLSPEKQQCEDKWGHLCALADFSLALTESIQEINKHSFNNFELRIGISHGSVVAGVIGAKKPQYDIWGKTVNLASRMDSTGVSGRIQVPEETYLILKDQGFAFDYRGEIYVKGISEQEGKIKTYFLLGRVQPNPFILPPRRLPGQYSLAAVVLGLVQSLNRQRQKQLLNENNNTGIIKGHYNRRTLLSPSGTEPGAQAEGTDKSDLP
Compound,IC50 (AC1-C1b/CaM),Ki (AC1-C1b/CaM),AC1-CaM FP % inhib (AC1-C1b/CaM),Ki (AC8-Nt/CaM),Ki ratio (AC8 NT/AC1) (AC8-Nt/CaM),Ki (AC8-C2b/CaM),Ki ratio (AC8-C2b/AC1) (AC8-C2b/CaM),IC50 (AC1/CaM PPI),IC50 (AC8/CaM PPI),viability at 30 min [1],further results
"CCCCCCCCCCCCCCCC[N+](C)(C)CCN(Cc1ccc(OC)cc1)c1ncccn1 [Compound 4, Thonzonium]",4.14 µM,1 µM,94%,2.7 µM,2.7,3.6 µM,3.7,29.1 ± 1.2 µM,18.5 ± 1.26 µM,100%,–
CNC(=O)C1=C(Nc2ccc(N(C)C)cc2)c2ccccc2S1(=O)=O [Compound 20],43 µM,10.2 µM,~70%,5.9 µM,0.58,4.5 µM,0.44,63 ± 1.34 µM,70.3 ± 1.13 µM,100%,IC50 (AC1; [3]): 66.3 ± 33.3 µM
"CN(C(=O)CN(CCO)CC(=O)N(C)C(C)(C)Cc1ccccc1)C(C)(C)Cc1ccccc1 [Compound 8, Oxetacaine]",20 µM,4.7 µM,38%,38 µM,8.0,33.5 µM,7.1,40 ± 1.15 µM,34.6 ± 1.32 µM,93.3%,–
"CC1=C(CCC(=O)O)c2cc3[nH]c(cc4nc(cc5[nH]c(cc1n2)c(C)c5C(C)O)C(C)=C4C(C)O)c(C)c3CCC(=O)O (centres unmarked) [Compound 6, Hematoporphyrin]",14.7 µM,3.5 µM,131%,61.7 µM,17.8,10.1 µM,2.9,38.4 ± 1.17 µM,11.6 ± 1.24 µM,95%,fold selective for AC8 over AC1 in the NanoBiT assay (AC8/CaM PPI; AC8/CaM vs AC1/CaM NanoBiT): 2- to 4 fold
CN1CCN(CCNC(=O)c2cc3c(=O)n(C)c(=O)n(C)c3s2)CC1 [Compound 17],75.4 µM,17.8 µM,53%,–,AC1 Selective,–,AC1 Selective,–,–,–,Ki (μM) AC8 NT (AC8-Nt/CaM): n/i; Ki (μM) AC8 C2b (AC8-C2b/CaM): n/i; Nanobit: AC1-CaM IC50 (μM ± SEM) (AC1/CaM PPI): No Inhibition
CCC12CN3CC(CC)(CN(C1)C31C(=O)N(C)c3ccc(Br)cc31)C2=O (centres unmarked) [Compound 14],58.2 µM,13.8 µM,–,–,AC1 Selective,–,AC1 Selective,84 ± 1.7 µM,–,100%,Ki (μM) AC8 NT (AC8-Nt/CaM): n/i; Ki (μM) AC8 C2b (AC8-C2b/CaM): n/i
CCN(C)C(=O)Oc1cccc([C@H](C)N(C)C)c1 [rivastigmine tartrate],–,–,–,–,–,–,–,–,–,–,inhibition of AC1/CaM in the FP assay after fresh powder stocks were ordered (AC1-C1b/CaM): did not exhibit significant inhibition
"CCc1oc2ccccc2c1C(=O)c1cc(Br)c(O)c(Br)c1 [Compound 12, Benzbromarone]",33 µM,7.8 µM,47%,52.1 µM,–,23.8 µM,–,1.7 ± 1.17 µM,4.16 ± 1.15 µM,90%,"inhibition of AC1 activity (efficacy) (AC1; initial characterization of hits, data not shown): ~75%; IC50 (AC1; [3]): 4.09 ± 2.41 µM"
CCc1cc(C(c2cccs2)N2CCCCC2)c(NC(=O)c2ccco2)s1 (centres unmarked) [Compound 22],–,–,–,–,–,–,–,–,–,–,"IC50 (AC1; [4]): 2.48 ± 0.39 µM; IC50 (AC8): 3.23 ± 0.57 µM; viability at 30 min, 30 μM [2]: 97%"
Cc1ccc(S(=O)(=O)Nc2cc(N3CCCS3(=O)=O)ccc2C)cc1 [Compound 19],43.4 µM,10.3 µM,–,–,AC1 Selective,–,AC1 Selective,–,–,–,Ki (μM) AC8 NT (AC8-Nt/CaM): n/i; Ki (μM) AC8 C2b (AC8-C2b/CaM): n/i; Nanobit: AC1-CaM IC50 (μM ± SEM) (AC1/CaM PPI): No Inhibition
CCNC(=O)c1cc2c(=O)n(C)c(=O)n(C)c2s1 [Compound 16],24.2 µM,5.7 µM,–,–,AC1 Selective,–,AC1 Selective,–,–,–,Ki (μM) AC8 NT (AC8-Nt/CaM): n/i; Ki (μM) AC8 C2b (AC8-C2b/CaM): n/i; Nanobit: AC1-CaM IC50 (μM ± SEM) (AC1/CaM PPI): No Inhibition
"CN(C)c1ccc2nc3ccc(=[N+](C)C)cc-3sc2c1 [Compound 2, Methylene Blue]",2.18 µM,0.51 µM,–,3.2 µM,–,0.82 µM,–,98 ± 1.14 µM,80.3 ± 1.14 µM,86%,–
CCc1cc(C(c2cccs2)N2CCN(CC)CC2)c(NC(=O)c2ccco2)s1 (centres unmarked) [Compound 26],–,–,–,–,–,–,–,–,–,–,"IC50 (AC1; [4]): 4.39 ± 0.44 µM; IC50 (AC8): 2.92 ± 1.36 µM; viability at 30 min, 30 μM [2]: 61%"
CN1CCC[C@H]1c1cccnc1.O=C(O)C(O)C(O)C(=O)O.O=C(O)C(O)C(O)C(=O)O [nicotine ditartrate],–,–,–,–,–,–,–,–,–,–,inhibition of AC1/CaM in the FP assay after fresh powder stocks were ordered (AC1-C1b/CaM): did not exhibit significant inhibition
"Clc1ccc(C(c2ccc(Cl)cc2)n2cc[n+](CC(OCc3ccc(Cl)cc3Cl)c3ccc(Cl)cc3Cl)c2)cc1 (centres unmarked) [CDZ, Calmidazolium]",15.1 µM and ~15 µM,–,–,–,–,–,–,–,–,–,IC90 (AC1-C1b/CaM): ~100 µM
"CCC(C)CC(C)CCCCCCCCC(=O)NC1CC(O)C(NCCN)NC(=O)C2C(O)CCN2C(=O)C(C(O)CCN)NC(=O)C(C(O)C(O)c2ccc(O)cc2)NC(=O)C2CC(O)CN2C(=O)C(C(C)O)NC1=O (centres unmarked) [Compound 5, Caspofungin Acetate]",12.7 µM,3 µM,20%,6.3 µM,2 and 2.1,6.2 µM,2 and 2.1,–,–,–,–
ethyl quinine,–,–,–,–,–,–,–,–,–,–,inhibition of AC1/CaM in the FP assay after fresh powder stocks were ordered (AC1-C1b/CaM): did not exhibit significant inhibition
